We go through 14 molecules from patent US11001590B2, “Pyrazolopyrimidine derivatives” (BAYER ANIMAL HEALTH GMBH, priority 2016, dated 2021).

pEC50: −log10 of the molar value.

The test system of one data set is Nippostrongylus brasiliensis. Description: In vitro assay 2: Nippostrongylus brasiliensis (NIPOBR), acetylcholine esterase readout. The following applies: adult worms, 10 μg/ml (10 ppm), read-out: activity (reduction of AChE compared to negative control). Here is the method:
In Vitro Assay 2: Nippostronqylus Brasiliensis (NIPOBR)
Adult Nippostrongylus brasiliensis were washed with saline buffer containing 100 U/ml penicillin, 0.1 mg/ml streptomycin and 2.5 μg/ml amphotericin B. Test compounds were dissolved in DMSO and worms were incubated in medium in a final concentration of 10 μg/ml (10 ppm) respectively 1 μg/ml (1 ppm). An aliquot of the medium was used to determine the acetylcholine esterase activity in comparison to a negative control. The principle of measuring acetylcholine esterase as readout for anthelmintic activity was described in Rapson et al (1986) and Rapson et al (1987).
As for `CCn1cc(-c2c(C)nn3c(C(C)C)c(C(=O)N[C@H]4CCc5ccccc54)cnc23)cn1` [Example 374], the inhibition at 10 µg/mL was > 80%.

In the case of `Cc1nn2c(C(C)C)c(C(=O)N[C@H]3CCOc4ccccc43)cnc2c1-c1cnn(CC2CC2)c1` [Example 419], the inhibition at 10 µg/mL was > 80%.

For the molecule `Cc1nn2c(C(C)C)c(C(=O)N[C@H]3CCOc4ccccc43)cnc2c1-c1cccc(N2CC(F)C2)c1` [Example 459], the inhibition at 10 µg/mL is > 80%.

In the case of `Cc1nn2c(C(C)C)c(C(=O)N[C@H]3CCc4ccccc43)cnc2c1-c1cnn(CC2CC2)c1` [Example 376], the inhibition at 10 µg/mL was > 80%.

For `Cc1nn2c(C(C)C)c(C(=O)N[C@H]3CCOc4ccccc43)cnc2c1-c1cccc(Cl)c1F` [Example 189], the inhibition at 10 µg/mL was > 80%.

With `COc1cccc(-c2c(C)nn3c(C(C)C)c(C(=O)N[C@H]4CCOc5ccccc54)cnc23)c1F` [Example 184], the inhibition at 10 µg/mL is > 80%.

On to `Cc1nn2c(C(C)C)c(C(=O)N[C@H]3CCOc4ccccc43)cnc2c1-c1cccc(N(C)C)c1` [Example 393], for which the inhibition at 10 µg/mL was > 80%.

As to `Cc1nn2c(C(C)C)c(C(=O)N[C@H]3CCc4ccccc43)cnc2c1-c1cccc(F)c1F` [Example 141], the inhibition at 10 µg/mL is > 80%.

In the case of `Cc1nn2c(C(C)C)c(C(=O)N[C@H]3CCCc4ccccc43)cnc2c1-c1cc(Cl)cc(Cl)c1F` [Example 265], the inhibition at 10 µg/mL is > 80%.

Turning to `COCc1cccc(-c2c(C)nn3c(C4CC4)c(C(=O)N[C@H]4CCOc5ccccc54)cnc23)c1` [Example 451], the inhibition at 10 µg/mL is > 80%.

For `Cc1nn2c(C(C)C)c(C(=O)N[C@H]3CCOc4ccccc43)cnc2c1-c1cccc(OC(C)C)c1F` [Example 188], the inhibition at 10 µg/mL was > 80%.

In the case of `Cc1nn2c(C(C)C)c(C(=O)N[C@H]3CCc4ccccc43)cnc2c1-c1cnn(CC(F)F)c1` [Example 377], the inhibition at 10 µg/mL is > 80%.

On to `Cc1nn2c(C(C)C)c(C(=O)N[C@H]3CCc4ccccc43)cnc2c1-c1ccc(F)c(C(F)(F)F)c1` [Example 294], for which the inhibition at 10 µg/mL is > 80%.

On to `Cc1nn2c(C(C)C)c(C(=O)N[C@H]3CCOc4ccccc43)cnc2c1-c1cccc2c1OC(F)(F)O2` [Example 257], for which the inhibition at 10 µg/mL was > 80%.

The test system of another data set is Dirofilaria immitis microfilariae. Description: In vitro assay 3: Dirofilaria immitis microfilariae (DIROIM L1), motility. The following applies: 72 h, reduction of motility vs negative control, 72 h incubation.
Regarding `CCn1cc(-c2c(C)nn3c(C(C)C)c(C(=O)N[C@H]4CCc5ccccc54)cnc23)cn1` [Example 374], the half-maximal effective concentration (EC50) is < 10 µg/mL.

On to `Cc1nn2c(C(C)C)c(C(=O)N[C@H]3CCOc4ccccc43)cnc2c1-c1cnn(CC2CC2)c1` [Example 419], for which the EC50 was < 10 µg/mL.

As for `Cc1nn2c(C(C)C)c(C(=O)N[C@H]3CCOc4ccccc43)cnc2c1-c1cccc(N2CC(F)C2)c1` [Example 459], the concentration giving a half-maximal response (EC50) was < 1 µg/mL.

As for `Cc1nn2c(C(C)C)c(C(=O)N[C@H]3CCc4ccccc43)cnc2c1-c1cnn(CC2CC2)c1` [Example 376], the 50% effective concentration (EC50) was < 10 µg/mL.

With `Cc1nn2c(C(C)C)c(C(=O)N[C@H]3CCOc4ccccc43)cnc2c1-c1cccc(Cl)c1F` [Example 189], the EC50 is < 0.1 µg/mL.

For the molecule `COc1cccc(-c2c(C)nn3c(C(C)C)c(C(=O)N[C@H]4CCOc5ccccc54)cnc23)c1F` [Example 184], the EC50 is < 0.1 µg/mL.

In the case of `Cc1nn2c(C(C)C)c(C(=O)N[C@H]3CCOc4ccccc43)cnc2c1-c1cccc(N(C)C)c1` [Example 393], the EC50 was < 0.1 µg/mL.

`Cc1nn2c(C(C)C)c(C(=O)N[C@H]3CCc4ccccc43)cnc2c1-c1cccc(F)c1F` [Example 141]: the EC50 was < 0.1 µg/mL.

On to `Cc1nn2c(C(C)C)c(C(=O)N[C@H]3CCCc4ccccc43)cnc2c1-c1cc(Cl)cc(Cl)c1F` [Example 265], for which the EC50 is < 1 µg/mL.

For the molecule `COCc1cccc(-c2c(C)nn3c(C4CC4)c(C(=O)N[C@H]4CCOc5ccccc54)cnc23)c1` [Example 451], the EC50 is < 1 µg/mL.

Take `Cc1nn2c(C(C)C)c(C(=O)N[C@H]3CCOc4ccccc43)cnc2c1-c1cccc(OC(C)C)c1F` [Example 188]: the EC50 is < 1 µg/mL.

Regarding `Cc1nn2c(C(C)C)c(C(=O)N[C@H]3CCc4ccccc43)cnc2c1-c1cnn(CC(F)F)c1` [Example 377], the 50% effective concentration (EC50) was < 10 µg/mL.

`Cc1nn2c(C(C)C)c(C(=O)N[C@H]3CCc4ccccc43)cnc2c1-c1ccc(F)c(C(F)(F)F)c1` [Example 294]: the EC50 is < 10 µg/mL.

Consider `Cc1nn2c(C(C)C)c(C(=O)N[C@H]3CCOc4ccccc43)cnc2c1-c1cccc2c1OC(F)(F)O2` [Example 257], for which the EC50 is < 0.1 µg/mL.

The next data set has as its system Dirofilaria immitis third-stage larvae. The data set is described as follows: In vitro assay 4: Dirofilaria immitis (DIROIM L4), motility of larvae. The following applies: 72 h.
Take `Cc1nn2c(C(C)C)c(C(=O)N[C@H]3CCOc4ccccc43)cnc2c1-c1cccc(Cl)c1F` [Example 189]: the EC50 was < 0.1 µg/mL.

With `COc1cccc(-c2c(C)nn3c(C(C)C)c(C(=O)N[C@H]4CCOc5ccccc54)cnc23)c1F` [Example 184], the EC50 is < 0.1 µg/mL.

As for `Cc1nn2c(C(C)C)c(C(=O)N[C@H]3CCc4ccccc43)cnc2c1-c1cccc(F)c1F` [Example 141], the 50% effective concentration (EC50) was < 0.1 µg/mL.

In another data set the test system is Litomosoides sigmodontis third-stage larvae. The data set is described as follows: In vitro assay 7: Litomosoides sigmodontis L3 (LTMOSI), motility. The following applies: 72 h, reduction of motility vs negative control, 72 h incubation.
Description: In Vitro Assay 7: Litomosoides Siqmodontis L3 (LTMOSI)
10 Litomosoides sigmodontis third-stage larvae, which were freshly isolated from the pleural cavity of an infected rodent, were added to wells of a microtitre plate containing a nutrient medium and the test compound in DMSO. Compounds were tested in concentration-response assay in duplicate. Larvae exposed to DMSO and no test compounds were used as negative controls. Larvae were evaluated after 72 h of incubation with the compound. Efficacy was determined as the reduction of motility in comparison to the negative control. Based on the evaluation of a wide concentration range, concentration-response curves as well as ECso-values were calculated.
In the case of `Cc1nn2c(C(C)C)c(C(=O)N[C@H]3CCOc4ccccc43)cnc2c1-c1cccc(Cl)c1F` [Example 189], the concentration giving a half-maximal response (EC50) was < 0.1 µg/mL.

As to `COc1cccc(-c2c(C)nn3c(C(C)C)c(C(=O)N[C@H]4CCOc5ccccc54)cnc23)c1F` [Example 184], the EC50 is < 0.1 µg/mL.

`Cc1nn2c(C(C)C)c(C(=O)N[C@H]3CCc4ccccc43)cnc2c1-c1cccc(F)c1F` [Example 141]: the EC50 is < 0.1 µg/mL.

Test system in a further data set: not listed separately
Description: log P by HPLC on reversed phase columns (Method L0; [a] acidic, [b] neutral range).
Conditions: not given
`CCn1cc(-c2c(C)nn3c(C(C)C)c(C(=O)N[C@H]4CCc5ccccc54)cnc23)cn1` [Example 374] registered a chromatographic logP of 3.44.

In the case of `Cc1nn2c(C(C)C)c(C(=O)N[C@H]3CCOc4ccccc43)cnc2c1-c1cnn(CC2CC2)c1` [Example 419], the chromatographic logP was 3.59.

Take `Cc1nn2c(C(C)C)c(C(=O)N[C@H]3CCOc4ccccc43)cnc2c1-c1cccc(N2CC(F)C2)c1` [Example 459]: the chromatographic logP was determined as 4.36.

`Cc1nn2c(C(C)C)c(C(=O)N[C@H]3CCc4ccccc43)cnc2c1-c1cnn(CC2CC2)c1` [Example 376] registered a chromatographic logP of 3.83.

For the molecule `Cc1nn2c(C(C)C)c(C(=O)N[C@H]3CCOc4ccccc43)cnc2c1-c1cccc(Cl)c1F` [Example 189], the chromatographic logP amounted to 4.72.

In turn, `COc1cccc(-c2c(C)nn3c(C(C)C)c(C(=O)N[C@H]4CCOc5ccccc54)cnc23)c1F` [Example 184] yielded a chromatographic logP of 2.84.

Molecule `Cc1nn2c(C(C)C)c(C(=O)N[C@H]3CCOc4ccccc43)cnc2c1-c1cccc(N(C)C)c1` [Example 393] came in with a chromatographic logP of 3.64.

Molecule `Cc1nn2c(C(C)C)c(C(=O)N[C@H]3CCc4ccccc43)cnc2c1-c1cccc(F)c1F` [Example 141] returned a chromatographic logP of 4.6.

As to `Cc1nn2c(C(C)C)c(C(=O)N[C@H]3CCCc4ccccc43)cnc2c1-c1cc(Cl)cc(Cl)c1F` [Example 265], the chromatographic logP came out at 6.01.

The molecule `COCc1cccc(-c2c(C)nn3c(C4CC4)c(C(=O)N[C@H]4CCOc5ccccc54)cnc23)c1` [Example 451] returned a chromatographic logP of 3.43.

As for `Cc1nn2c(C(C)C)c(C(=O)N[C@H]3CCOc4ccccc43)cnc2c1-c1cccc(OC(C)C)c1F` [Example 188], the chromatographic logP is 4.79.

`Cc1nn2c(C(C)C)c(C(=O)N[C@H]3CCc4ccccc43)cnc2c1-c1cnn(CC(F)F)c1` [Example 377]: the chromatographic logP was 3.49.

`Cc1nn2c(C(C)C)c(C(=O)N[C@H]3CCc4ccccc43)cnc2c1-c1ccc(F)c(C(F)(F)F)c1` [Example 294] yielded a chromatographic logP of 5.36.

`Cc1nn2c(C(C)C)c(C(=O)N[C@H]3CCOc4ccccc43)cnc2c1-c1cccc2c1OC(F)(F)O2` [Example 257] came in with a chromatographic logP of 4.87.

For another data set, the target named is C. elegans Slo-1a (Caenorhabditis elegans, UniProt Q95V25). Description: In vitro assay 1: C. elegans Slo-1a, action at a recombinant C. elegans CHO cell line (membrane potential measurement).
Chain of C. elegans Slo-1a (Q95V25 whole entry): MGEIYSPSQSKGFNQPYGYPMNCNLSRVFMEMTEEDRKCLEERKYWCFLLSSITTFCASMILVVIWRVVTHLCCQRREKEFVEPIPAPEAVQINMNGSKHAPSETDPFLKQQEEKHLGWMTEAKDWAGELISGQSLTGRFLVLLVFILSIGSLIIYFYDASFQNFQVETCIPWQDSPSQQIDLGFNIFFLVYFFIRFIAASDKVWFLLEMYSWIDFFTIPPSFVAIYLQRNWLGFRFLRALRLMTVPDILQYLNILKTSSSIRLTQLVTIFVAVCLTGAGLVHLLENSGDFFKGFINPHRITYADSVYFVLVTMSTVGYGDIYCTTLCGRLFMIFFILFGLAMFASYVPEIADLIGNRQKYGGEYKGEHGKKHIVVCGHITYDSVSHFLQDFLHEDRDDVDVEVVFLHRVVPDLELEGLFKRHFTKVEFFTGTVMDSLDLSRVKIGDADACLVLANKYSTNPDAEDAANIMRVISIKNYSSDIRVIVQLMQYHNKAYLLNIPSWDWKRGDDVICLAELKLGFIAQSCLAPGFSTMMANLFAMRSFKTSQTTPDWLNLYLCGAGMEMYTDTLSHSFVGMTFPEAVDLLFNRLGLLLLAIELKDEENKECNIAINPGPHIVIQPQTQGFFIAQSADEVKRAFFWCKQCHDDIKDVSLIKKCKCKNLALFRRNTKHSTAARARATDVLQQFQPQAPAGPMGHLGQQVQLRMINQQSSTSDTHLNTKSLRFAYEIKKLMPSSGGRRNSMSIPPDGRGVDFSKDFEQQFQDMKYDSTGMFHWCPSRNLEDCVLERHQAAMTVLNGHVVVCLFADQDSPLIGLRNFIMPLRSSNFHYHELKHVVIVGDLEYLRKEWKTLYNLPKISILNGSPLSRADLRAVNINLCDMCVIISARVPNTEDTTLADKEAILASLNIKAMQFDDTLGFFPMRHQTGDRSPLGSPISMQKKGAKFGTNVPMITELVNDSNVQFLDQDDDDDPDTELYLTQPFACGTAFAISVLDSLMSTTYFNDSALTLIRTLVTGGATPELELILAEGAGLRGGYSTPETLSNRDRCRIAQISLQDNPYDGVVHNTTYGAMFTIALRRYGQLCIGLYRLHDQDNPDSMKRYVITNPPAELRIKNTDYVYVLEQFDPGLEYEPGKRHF
Conditions: not given
Regarding `CCn1cc(-c2c(C)nn3c(C(C)C)c(C(=O)N[C@H]4CCc5ccccc54)cnc23)cn1` [Example 374], the pEC50 is 7.30.

On to `Cc1nn2c(C(C)C)c(C(=O)N[C@H]3CCOc4ccccc43)cnc2c1-c1cnn(CC2CC2)c1` [Example 419], for which the negative-log EC50 (pEC50) is 8.10.

For `Cc1nn2c(C(C)C)c(C(=O)N[C@H]3CCOc4ccccc43)cnc2c1-c1cccc(N2CC(F)C2)c1` [Example 459], the negative logarithm of the EC50 (pEC50) was 8.00.

As for `Cc1nn2c(C(C)C)c(C(=O)N[C@H]3CCc4ccccc43)cnc2c1-c1cnn(CC2CC2)c1` [Example 376], the negative logarithm of the EC50 (pEC50) was 8.10.

In the case of `Cc1nn2c(C(C)C)c(C(=O)N[C@H]3CCOc4ccccc43)cnc2c1-c1cccc(Cl)c1F` [Example 189], the pEC50 was 8.90.

Turning to `COc1cccc(-c2c(C)nn3c(C(C)C)c(C(=O)N[C@H]4CCOc5ccccc54)cnc23)c1F` [Example 184], the negative-log EC50 (pEC50) was 8.50.

With `Cc1nn2c(C(C)C)c(C(=O)N[C@H]3CCOc4ccccc43)cnc2c1-c1cccc(N(C)C)c1` [Example 393], the pEC50 was 8.00.

For the molecule `Cc1nn2c(C(C)C)c(C(=O)N[C@H]3CCc4ccccc43)cnc2c1-c1cccc(F)c1F` [Example 141], the pEC50 was 8.10.

On to `Cc1nn2c(C(C)C)c(C(=O)N[C@H]3CCCc4ccccc43)cnc2c1-c1cc(Cl)cc(Cl)c1F` [Example 265], for which the negative logarithm of the EC50 (pEC50) is 8.60.

Consider `COCc1cccc(-c2c(C)nn3c(C4CC4)c(C(=O)N[C@H]4CCOc5ccccc54)cnc23)c1` [Example 451], for which the negative-log EC50 (pEC50) is 8.10.

Turning to `Cc1nn2c(C(C)C)c(C(=O)N[C@H]3CCOc4ccccc43)cnc2c1-c1cccc(OC(C)C)c1F` [Example 188], the pEC50 was 7.90.

As for `Cc1nn2c(C(C)C)c(C(=O)N[C@H]3CCc4ccccc43)cnc2c1-c1cnn(CC(F)F)c1` [Example 377], the negative-log EC50 (pEC50) was 7.80.

Take `Cc1nn2c(C(C)C)c(C(=O)N[C@H]3CCc4ccccc43)cnc2c1-c1ccc(F)c(C(F)(F)F)c1` [Example 294]: the pEC50 was 7.30.

In the case of `Cc1nn2c(C(C)C)c(C(=O)N[C@H]3CCOc4ccccc43)cnc2c1-c1cccc2c1OC(F)(F)O2` [Example 257], the negative logarithm of the EC50 (pEC50) is 8.20.

In general, EC50 refers to the midpoint of the concentration-response curve. Broadly, the chromatographic logP is a lipophilicity value derived from retention on a column. High values mean higher lipophilicity, low ones lower lipophilicity. One may read the pEC50 as the negative decadic logarithm of the EC50, by convention in mol/L.
